# In paper PMC2778948, “A Novel Enediynyl Peptide Inhibitor of Furin That Blocks Processing of proPDGF-A, B and proVEGF-C” (PLoS ONE, 2009):
# Several values for one entry are separate records, joined by “and”; a condition that tells them apart may be missing. Identical values can stand only once. Like-named read-outs stand apart in the source and are kept apart here.
# Experiments:
# [1] = target: T1, recombinant m (mouse) PC5 (Mus musculus, UniProt Q04592); experiment: In vitro PC5 assay with Boc-RVRR-MCA (50 µM), aromatic enediyne compounds; format: biochemical
# T1 construct: made in house
# Text: (§1) Most aromatic enediyne compounds are chemically highly reactive and can easily generate upon heating reactive bis-radical species via Bergman cyclo-aromatization reaction, [32]. It is a possibility that these reactive intermediates may then react with one or more of the catalytic amino acid residues His, Ser or Asp of PC-enzymes leading to chemical modifications of latter. This notion is supported by several studies involving interactions of amino acids either free or within protein sequences [41]–[46]. Based on this rationale we proposed that such types of molecules may therefore inhibit the protease activities of these enzymes. To test this hypothesis, we first synthesized several aromatic enediyne derivatives and examined in vitro their effects on proteolytic activities of three key members of PC-family enzymes namely furin, PC5 and PC7. In vitro enzyme assay of PCs against Boc-RVRR-MCA substrate (50 µM), in the absence and presence of various synthetic aromatic enediyne compounds (Fig. 1) indicated weak to modest inhibitory activities of these compounds. […] This is the first report of PC-inhibitory activity of an enediyne compound. […]
# (§2) Figure 1 List of synthetic aromatic enediyne derivatives and their effects on protease activities of Proprotein Convertases Furin, PC5 and PC7. […] ND = not determined. […]
# soluble hPC7 = target: T2, soluble hPC7 (Homo sapiens, UniProt Q16549); experiment: In vitro PC7 assay with Boc-RVRR-MCA (50 µM), aromatic enediyne compounds; format: biochemical
# T2 construct: soluble hPC7 were obtained in partially purified form; made in house
# T2 sequence (Q16549 142-667 limits assumed): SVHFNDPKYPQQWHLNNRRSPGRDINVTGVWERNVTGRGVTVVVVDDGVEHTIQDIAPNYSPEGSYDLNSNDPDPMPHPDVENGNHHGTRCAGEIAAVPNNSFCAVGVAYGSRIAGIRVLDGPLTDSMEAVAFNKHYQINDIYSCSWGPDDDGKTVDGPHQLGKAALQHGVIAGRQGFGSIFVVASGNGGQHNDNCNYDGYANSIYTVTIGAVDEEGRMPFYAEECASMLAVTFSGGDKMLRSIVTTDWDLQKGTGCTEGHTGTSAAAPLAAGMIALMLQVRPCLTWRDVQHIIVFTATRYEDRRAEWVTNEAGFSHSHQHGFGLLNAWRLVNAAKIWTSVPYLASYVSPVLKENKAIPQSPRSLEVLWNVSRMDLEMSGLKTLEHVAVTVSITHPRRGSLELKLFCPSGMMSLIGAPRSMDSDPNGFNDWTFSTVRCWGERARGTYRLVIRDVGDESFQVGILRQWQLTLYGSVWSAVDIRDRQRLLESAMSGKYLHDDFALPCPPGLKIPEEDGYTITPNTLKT
# Text: as §1, §2
# [2] = target: T3, recombinant h (human) furin (Homo sapiens, UniProt P09958); experiment: In vitro furin assay with Boc-RVRR-MCA (50 µM), aromatic enediyne compounds; format: biochemical; conditions: for inhibition at 100 µM: read-out: Furin inhibition at a single concentration
# T3 construct: pure soluble recombinant h (human) furin; purchased New England Biolabs
# Text: Most aromatic enediyne compounds are chemically highly reactive and can easily generate upon heating reactive bis-radical species via Bergman cyclo-aromatization reaction, [32]. It is a possibility that these reactive intermediates may then react with one or more of the catalytic amino acid residues His, Ser or Asp of PC-enzymes leading to chemical modifications of latter. This notion is supported by several studies involving interactions of amino acids either free or within protein sequences [41]–[46]. Based on this rationale we proposed that such types of molecules may therefore inhibit the protease activities of these enzymes. To test this hypothesis, we first synthesized several aromatic enediyne derivatives and examined in vitro their effects on proteolytic activities of three key members of PC-family enzymes namely furin, PC5 and PC7. In vitro enzyme assay of PCs against Boc-RVRR-MCA substrate (50 µM), in the absence and presence of various synthetic aromatic enediyne compounds (Fig. 1) indicated weak to modest inhibitory activities of these compounds. […] This is the first report of PC-inhibitory activity of an enediyne compound. This finding prompted us to the idea of incorporating an enediyne function within a peptide sequence which may enhance the potency and selectivity of furin inhibition. To accomplish this, we designed and synthesized an enediynyl amino acid (Eda) derivative with its amino terminal protected by Fmoc (9H-fluoren-9-ylmethoxy carbonyl) group so that it can be directly used in solid phase peptide synthesis.
# Figure 1 List of synthetic aromatic enediyne derivatives and their effects on protease activities of Proprotein Convertases Furin, PC5 and PC7. […] The enzyme assay was carried out by using the fluorogenic peptide substrate Boc-RVRR-MCA (50 µM final concentration) as described in [27]. ND = not determined. TEXT PRINTED IN THE PICTURE: AB-1: MW 438; Furin: 29.9 ± 1.5; PC5: 33% (57 mM); PC7: 30.4 ± 3.5 | AB-2: MW 390; Furin: 10.5 ± 1.8; PC5: 34.5 ± 5.8; PC7: 8.5 ± 1.8 | AB-3: MW 506; Furin: 14.2 ± 1.8; PC5: 17.2± 3.4 | AB-4: MW 258; Furin: 10% at 100 μM | AB-5: MW 259; Furin: 12% at 100 μM | AB-6: MW 780; Furin: 192 ± 6.7 | AB-6-Ni: MW 838; Furin: 160 ± 2.5
# While pure soluble recombinant h (human) furin was obtained commercially from New England Biolabs (Boston, Ma, USA), recombinant m (mouse) PC5 and soluble hPC7 were obtained in partially purified form as described earlier.
# [3] = tested on: furin-mediated processing of proVEGF-C in CHO cells; experiment: Processing of proVEGF-C in CHO cells (western blot); format: cell-based; conditions: 50 µM
# Text: (§3) The result was compared in parallel with the commercial furin inhibitor Dec (decanoyl)-RVRR-cmk (chloromethyl ketone) and the 83-mer synthetic full length prodomain protein of hfurin [49]. […] This was reflected by the strong appearance of 22 kDa proPDGF-A band which was completely absent in the control experiment done in parallel without the presence of any inhibitor. […] The effect was compared in parallel with that done with the known furin inhibitor dec-RVRR-cmk.
# CHO-cells expressing FLAG-labeled proVEGF-C [57] were grown in DMEM medium as described above in the absence and presence of furin-Eda peptide and the furin inhibitor Dec-RVRR-cmk (each 50 µM concentration). The presence of VEGF-C precursor and its C-terminal processed form generated by furin cleavage were assessed by western blot analysis using FLAG antibody while the level of actin (control house keeping protein) was analyzed by immunoblot for quantitation purpose.
# [4] = tested on: furin-mediated processing of pro-PDGF-B in CHO cells; experiment: Processing of proPDGF-B in CHO cells (western blot); format: cell-based; conditions: for Block of processing of 31 kDa pro-PDGF-B to 17 kDa mature form: 0.5 to 15 µM
# Procedure: CHO-cells expressing endogenous proPDGF-B [58] were grown as described above in the absence and presence of various concentrations ranging from 0.5 to 15 µM of either furin-Eda peptide or α1-Pdx, a known furin inhibitor [50]. Western blots were performed for the presence of proPDGF-B and its processed form using PDGF-B specific antibody. In parallel samples were also analyzed for actin levels.
# [5] = tested on: furin processing of proPDGF-A in CHO cells; experiment: Processing of FLAG-tagged proPDGF-A in CHO cells (western blot); format: cell-based; conditions: 24 h, FLAG antibody western blot
# Text: as §3
# CHO-cells expressing FLAG-tagged PDGF-A were grown in DMEM medium as described (43) until the cells achieved ∼80% confluency (24 h), At this stage the medium was removed, cells were washed and grown in fresh buffer supplemented with furin-Eda peptide (50 µM final concentration). The media and cells were harvested after another 24 h cell growth. The collected media were concentrated ∼20-fold using centricon filtration system (Amersham Biosciences Inc, cut off MW = 3 kDa) and subjected to western blot analysis using FLAG antibody for the presence of full length proPDGF-A and its C-terminal mature form obtained following cleavage by endogenous furin present in CHO cells. […] For quantitative purpose, each sample was also analyzed for the presence of actin by immunoblot using a specific antibody.
# T3 sequence (P09958 108-715 limits assumed): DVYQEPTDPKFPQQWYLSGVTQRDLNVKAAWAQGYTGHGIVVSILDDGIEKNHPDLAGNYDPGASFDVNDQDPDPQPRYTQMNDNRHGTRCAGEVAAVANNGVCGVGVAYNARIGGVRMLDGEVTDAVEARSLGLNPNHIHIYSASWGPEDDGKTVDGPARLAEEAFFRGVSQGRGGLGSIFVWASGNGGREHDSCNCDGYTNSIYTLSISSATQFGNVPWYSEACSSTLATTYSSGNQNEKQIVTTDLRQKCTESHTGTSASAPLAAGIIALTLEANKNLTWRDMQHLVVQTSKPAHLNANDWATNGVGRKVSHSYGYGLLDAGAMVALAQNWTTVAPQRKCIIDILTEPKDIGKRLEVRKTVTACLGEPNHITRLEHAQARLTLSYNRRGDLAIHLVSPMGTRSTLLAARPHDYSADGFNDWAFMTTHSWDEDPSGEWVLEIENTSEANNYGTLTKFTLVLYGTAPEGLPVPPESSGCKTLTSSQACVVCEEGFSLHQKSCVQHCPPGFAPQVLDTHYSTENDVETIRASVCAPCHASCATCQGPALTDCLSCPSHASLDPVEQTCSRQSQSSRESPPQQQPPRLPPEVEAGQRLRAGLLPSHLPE
# T1 sequence (Q04592 117-1877): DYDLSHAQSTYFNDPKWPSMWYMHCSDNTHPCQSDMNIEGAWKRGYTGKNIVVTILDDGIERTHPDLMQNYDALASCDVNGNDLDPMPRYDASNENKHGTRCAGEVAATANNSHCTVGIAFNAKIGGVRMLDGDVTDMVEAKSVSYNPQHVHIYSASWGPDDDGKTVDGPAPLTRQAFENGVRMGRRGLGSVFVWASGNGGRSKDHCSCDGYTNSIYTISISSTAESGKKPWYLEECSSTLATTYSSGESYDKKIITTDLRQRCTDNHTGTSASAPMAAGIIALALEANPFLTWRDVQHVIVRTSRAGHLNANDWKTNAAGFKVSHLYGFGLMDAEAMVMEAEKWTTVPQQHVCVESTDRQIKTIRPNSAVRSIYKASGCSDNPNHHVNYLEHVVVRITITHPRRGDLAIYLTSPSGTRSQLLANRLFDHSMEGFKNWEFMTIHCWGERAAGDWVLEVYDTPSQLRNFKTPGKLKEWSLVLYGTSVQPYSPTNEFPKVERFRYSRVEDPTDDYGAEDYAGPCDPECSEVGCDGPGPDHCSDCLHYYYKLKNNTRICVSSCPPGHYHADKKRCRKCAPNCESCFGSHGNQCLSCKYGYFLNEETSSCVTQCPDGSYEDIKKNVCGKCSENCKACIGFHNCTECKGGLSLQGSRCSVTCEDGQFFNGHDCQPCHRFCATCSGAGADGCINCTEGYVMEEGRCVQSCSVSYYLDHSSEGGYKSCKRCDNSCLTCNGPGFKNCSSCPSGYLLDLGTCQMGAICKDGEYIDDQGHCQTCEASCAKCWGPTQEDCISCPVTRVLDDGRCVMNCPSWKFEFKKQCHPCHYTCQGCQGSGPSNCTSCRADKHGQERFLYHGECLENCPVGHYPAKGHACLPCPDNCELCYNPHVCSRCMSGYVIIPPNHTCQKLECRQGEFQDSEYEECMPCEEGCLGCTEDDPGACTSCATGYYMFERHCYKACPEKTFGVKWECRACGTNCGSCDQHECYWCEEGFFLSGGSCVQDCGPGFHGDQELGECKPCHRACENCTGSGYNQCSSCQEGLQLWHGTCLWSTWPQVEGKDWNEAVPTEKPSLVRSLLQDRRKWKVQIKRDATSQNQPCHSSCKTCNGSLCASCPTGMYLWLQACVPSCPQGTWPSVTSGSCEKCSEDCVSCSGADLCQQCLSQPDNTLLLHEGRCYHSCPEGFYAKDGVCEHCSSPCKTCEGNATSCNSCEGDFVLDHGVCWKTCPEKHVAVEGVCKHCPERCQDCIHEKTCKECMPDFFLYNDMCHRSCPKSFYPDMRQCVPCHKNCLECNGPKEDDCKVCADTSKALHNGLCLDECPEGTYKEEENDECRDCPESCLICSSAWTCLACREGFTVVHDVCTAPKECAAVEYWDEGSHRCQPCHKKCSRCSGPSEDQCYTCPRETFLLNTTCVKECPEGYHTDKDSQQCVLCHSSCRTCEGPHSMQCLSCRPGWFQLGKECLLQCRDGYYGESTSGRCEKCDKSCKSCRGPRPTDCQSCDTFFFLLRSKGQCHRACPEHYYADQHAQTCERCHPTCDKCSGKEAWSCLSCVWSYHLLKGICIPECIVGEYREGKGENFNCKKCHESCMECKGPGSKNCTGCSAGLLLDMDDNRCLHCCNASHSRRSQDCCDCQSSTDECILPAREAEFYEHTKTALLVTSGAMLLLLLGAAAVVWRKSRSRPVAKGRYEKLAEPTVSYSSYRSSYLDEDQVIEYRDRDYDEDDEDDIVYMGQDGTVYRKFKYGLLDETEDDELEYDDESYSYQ
molecule,measurement,setting,value
C1#Cc2ccccc2C#CCN(Cc2ccccc2)CCN(Cc2ccccc2)C1 [AB-2],IC50,"[1]; IC50 for inhibition of PC5, Boc-RVRR-MCA 50 µM final concentration",34 µM and 34.5 µM
same,IC50,soluble hPC7,8.5 µM
same,IC50,[2],10.5 µM
C1#Cc2ccccc2C#CCNc2cccc(c2)NC1 [AB-4],inhibition at 100 µM,[2],10%
C1#Cc2ccccc2C#CCNc2cccc(n2)NC1 [AB-5],inhibition at 100 µM,[2],12%
CC(C)[C@H](NC(=O)[C@H](CCC(N)=O)NC(=O)[C@@H](N)CCC(N)=O)C(=O)N[C@@H](C)C(=O)N[C@@H](CCCCN)C(=O)N[C@@H](CCCNC(=N)N)C(=O)N[C@@H](CCCNC(=N)N)C(=O)N[C@H](C(=O)N[C@@H](CCCCN)C(=O)N[C@@H](CCCNC(=N)N)C(=O)NCCC#Cc1ccccc1C#CCCC(=O)N[C@@H](CC(=O)O)C(=O)N[C@H](C(=O)N[C@@H](Cc1ccc(O)cc1)C(=O)N[C@@H](CCC(N)=O)C(=O)N[C@@H](CCC(=O)O)C(N)=O)C(C)C)[C@@H](C)O [furin-Eda-peptide (II)],Block of cleavage of 50 kDa proVEGF-C to 28 kDa mature VEGF-C,[3],block significantly
same,Effect on formation of 22 kDa intermediate form of PDGF-B,[4],neither inhibitors displayed any effect
same,Block of processing of 31 kDa pro-PDGF-B to 17 kDa mature form,[4],block furin-mediated processing
same,Block of cleavage of 22 kDa pro-PDGF-A to 14 kDa mature PDGF-A,[5]; 50 µM,block efficiently
C1#Cc2ccccc2C#CCN(Cc2ccccc2)CCN(Cc2ccccc2)CC#Cc2ccccc2C#CCN(Cc2ccccc2)CCN(Cc2ccccc2)C1 [AB-6],IC50,[2],192 ± 6.7 µM
Cc1ccc(S(=O)(=O)N2CC#Cc3ccccc3C#CCN(S(=O)(=O)c3ccc(C)cc3)c3cccc2c3)cc1 [AB-3],IC50,"[1]; read-out: IC50 for inhibition of PC5, Boc-RVRR-MCA 50 µM final concentration",17.2 ± 3.4 µM
same,Effect on PC7 protease activity,soluble hPC7; Boc-RVRR-MCA 50 µM,minor protease activating effect
same,IC50,"[2]; read-out: IC50 for inhibition of furin, Boc-RVRR-MCA 50 µM final concentration",14.2 ± 1.8 µM
"α1-Pdx: bioengineered protein, known potent inhibitor of furin",Effect on formation of 22 kDa intermediate form of PDGF-B,[4],neither inhibitors displayed any effect
same,Block of processing of 31 kDa pro-PDGF-B to 17 kDa mature form,[4],highly comparable
"Dec (decanoyl)-RVRR-cmk (chloromethyl ketone) [Dec-RVRR-cmk, reference compound]",Block of cleavage of 50 kDa proVEGF-C to 28 kDa mature VEGF-C,[3],block significantly
same,Block of cleavage of 22 kDa pro-PDGF-A to 14 kDa mature PDGF-A,[5]; 10 and 50 µM,block efficiently
